{"source": "patent US12285459B2", "about": "“Saposin-A derived peptides and uses thereof” (CHILDREN'S MEDICAL CENTER CORPORATION, priority 2011, dated 2025)", "key": {"[1]": {"tested_on": "Tsp-1 and p53 expression in lungs", "assay": "Tumor-free mice given PC3M-LN4 conditioned media plus peptide; Tsp-1/p53 in tissue by western blot", "format": "in vivo, C57Bl6 mice", "conditions": "PC3M-LN4 CM in combination with peptide; Western blot, FIG. 3", "protocol": "For tumor-free analysis C57Bl6 mice were treated with 200 uL of PC3M-LN4 media alone or in combination with peptides described above at dose of 30 mg/kg/day for 5 days. After treatment the animals were sacrificed and the lungs were harvested, lysed and analyzed for Tsp-1 and p53 protein levels as described previously (Kang et al).\nIt was sought to determine whether there was a smaller domain within saposin A that contained the p53/Tsp-1 stimulating activity. […] C57Bl6 mice (5-6 wks old) were injected daily with 300 uL of serum free DMEM, conditioned media (CM) from non-metastatic PC3 cells, CM from metastatic PC3M-LN4 cells and PC3M-LN4 CM plus 30 mg/kg of the pegylated 6 amino acid polypeptide (PEG2000-CDWLPK (SEQ ID NO: 46)) or 30 mg/kg of the pegylated 18 amino acid polypeptide (PEG2000-[…] (SEQ ID NO: 47)). After 9 days the mice were euthanized and the lungs and livers harvested and either fixed in formalin or lysed for Western blot analysis.\nFinally, the effect of substituting D-amino acids at different residues of the 4-amino acid peptide was analyzed. By Western blot analysis it was observed that substituting the first and third or second and fourth residues, in combination, had no effect on the Tsp-1 stimulating activity in vitro. These peptides were then tested in the tumor-free animal model described above. The normal 4-amino acid peptide and the D-amino acid substituted peptides were injected in combination with conditioned media from PC3M-LN4 cells in adult C57Bl6 mice for 4 days at a dose of 10 or 30 mg/kg/day via i.p. injection. Mice were sacrificed 24 hours after the treatment on day 4. The lungs of these mice were harvested and analyzed the Tsp-1 expression by Western blot analysis. […]\nMethods: 18 C57Bl6 mice were injected with Ac-dWlP-amide (SEQ ID NO: 132) at a dose of 30 mg/kg in a volume of 100 μL via intraperitoneal (i.p) injections in serum starved conditioned media from PC3M-LN4 prostate cancer cells. […] The relative intensity of the Tsp-1 (normalized to β-Actin) bands were determined using a Bio-Rad Chemi-Doc XRS system."}, "[2]": {"tested_on": "PC3M-LN4 prostate cancer cells", "assay": "Orthotopic PC3M-LN4 prostate tumor model", "format": "in vivo, SCID mice", "conditions": "30 mg/kg/day i.p. from day 26 for 16 days; PBS control", "protocol": "C57Bl6 SCID mice were injected with 1×10^6 PC3M-LN4 prostate cancer cells in the prostate gland as described previously (Kang et al). After 26 days the animals were treated with either PBS or peptides corresponding to residues 36-40 or 36-39 of saposin A at a dose of 30 mg/kg/day via intraperitoneal (i.p.) injection. After 16 days of treatment all animals were sacrificed, prostate tumors were weighed and harvested, along with the lungs of animals. Tissues were either fixed in NBF, or lysed and analyzed for Tsp-1 and p53 expression by western blot analysis.\nThe peptides were then tested for their ability to inhibit tumor growth and metastasis in three models, the PC3M-LN4 prostate cancer model, the B16-B6 melanoma model and the Lewis Lung Carcinoma (LLC) model. 1×10^6 PC3M-LN4 cells were first injected into the prostate gland of SCID mice. After 26 days these mice were treated with either PBS alone or the 4- or 5-amino acid peptide at a dose of 30 mg/kg/day via i.p. injection. The mice were treated for 16 days after which the mice were examined the size of the tumors and the expression of Tsp-1 and p53 in the primary tumors and lungs of the animals. The tumors in animals treated with the 4- and 5-amino acid peptides were, on average, 45% and 40% the size of control animals, respectively (FIG. 6)."}, "[3]": {"tested_on": "MDA-MB-231-LM2 breast cancer cells", "assay": "Orthotopic MDA-MB-231-LM2 breast cancer model, lung metastasis after primary tumor resection", "format": "in vivo, SCID mice", "protocol": "For orthotopic breast cancer cell injections, 5×10^6 viable MDA-MB-231 or its metastatic variant MDA-MB-LM2 cells, were injected into CB-17 SCID mice fat pads in a volume of 0.1 ml. Tumor growth and pulmonary metastases (following resection of primary tumor) were monitored by live animal bioluminescence imaging (Xenogen) once per week. For orthotopic prostate cancer cell injections, 2×10^6 viable LN4 or LN4-psap cells were injected into the prostate gland of mice. For in vivo determination of the metastatic burden, mice were anaesthetized and injected intraperitoneally with 75 mg/kg of D-luciferin (100 uL of 30 mg/mL in PBS). Metastatic growth was monitored over time using bioluminescence imaging performed with mice in a supine position 5 min after D-luciferin injection with a Xenogen IVIS system coupled to Living Image acquisition and analysis software (Xenogen). For BLI plots, photon flux was calculated for each mouse by using the same circular region of interest encompassing the thorax of the mouse.\nThe ability of the DWLPK (SEQ ID NO: 4) peptide to inhibit metastasis was tested in an orthotopic, clinically relevant, model of breast cancer metastatic to the lung. […] Lung metastases were assessed 3 weeks after the primary tumor removal (week 6 after primary tumor injection)."}, "[4]": {"tested_on": "Tsp-1 in white blood cells", "assay": "Tsp-1 protein in white blood cells of peptide-injected mice, Western blot", "format": "in vivo", "conditions": "5 day I.P. injections, 30 mg/kg", "protocol": "Mice were injected with DWLPK (SEQ ID NO: 4) or a scramble peptide using 5 day I.P. injections with 30 mg/kg peptide. White blood cells were isolated, protein was extracted, and a Western blot was performed measuring Tsp-1 protein."}}, "note": "“Also recorded” adds a separate entry of the source."}
{"substance": "DWLPK [5-amino acid peptide corresponding to residues 36-40 of saposin A]", "values": [{"measurement": "Tsp-1 and p53 expression in the lungs above basal levels", "setting": "[1]", "value": 6, "unit": "fold"}, {"measurement": "prostate tumor size relative to control animals", "setting": "[2]", "value": 40, "unit": "%"}, {"measurement": "Tsp-1 in the Gr1+ myeloid compartment of lungs", "setting": "[3]; compared to scrambled peptide", "value": "persistent Tsp-1 upregulation"}, {"measurement": "reduction of the metastatic burden in the lungs", "setting": "[3]; daily treatment after resection, 3 weeks after primary tumor removal, versus scramble peptide", "value": 50, "unit": "%"}, {"measurement": "Tsp-1 protein in white blood cells", "setting": "[4]", "value": "upregulated; also recorded: increased Tsp-1 expression"}]}
